# Assay results from US8530433B2, “Use of icariside II in manufacture of products for preventing or treating male or female sexual dysfunction” (Bjo-Biomed Ltd, priority 2008, dated 2013).
# Assays:
# [1] = system: MPG nerve axon of old rats; test: MPG (major pelvic ganglion) culture, nerve axon growth; type: cell-based, rat; conditions: for MPG nerve axon growth compared to control group: old rats; for MPG nerve axon growth (length of the longest nerve axon): old rats (24-month-old), n = 9
# Description: The 24-month-old Sprague-Dawley male rats were used. All experimental animals used in this study were under a protocol approved by the Institutional Animal Care and Use Committee. Rats were anesthetized by intraperitoneal injection of pentobarbital sodium (200 mg/kg). After midline incision on abdomen, major pelvic ganglion was carefully dissected from prostate. MPG culture and treatment: the Bilaterally MPG was rapidly removed and after washing with PBS, DCR were stripped from MPG and cut into 3 pieces with the same size. Reduced Growth Factor Matrigel (RGFM) was diluted three times with serum free RPMI-1640 medium and placed in the 35 mm Petri dish on ice. The diluted RGFM were poured onto the cold sterilized glass cover slip and incubated at 37° C. for 1 hour in 35 mm Petri dishes to make the RGFM steady. Then each MPG was embedded in 40 μl of pre-cooled RGFM and maintained at 37° C. for 5 minute and cultured in RPMI 1640 with 1% penicillin-streptomycin that is maintained in humidified cell culture incubator containing 5% CO2 at 37° C. The cultured MPG tissues were randomly divided into 3 groups: control group, icariside II and sildenafil groups. […] Three MGP from the younger groups and the three MPG from the older groups were cultured with designation dose for 48-72 hours. Measurement of nerve axon growth: at the 48 and 72 hours, Nikon DXM1200 digital camera connected to Zeiss Axiovert microscope and ACT-1 software (20 times magnification) was used to observe the nerve axon growth on the MPG. The digital image was analyzed by […] 4000 and the length of the longest nerve axon was calculated.
# PAE cells = test: eNOS protein expression by Western blot in PAE cells; type: cell-based, porcine; conditions: 12.5 μM, 24 hr; for eNOS protein expression (normalized to β-actin): PAE cells; for eNOS expression levels: unstable strains
# Description: (§1) 2) 5×10^5 of the PAE cells and PAE-EGFR cells were seeded into 35 mm Petri dishes plate in quadruplicate. After 12 hours, PAE and PAE-EGFR cells was treated with 12.5 μM icariside II and sildenafil for 24 hr, respectively. Then the treated PAE and PAE-EGFR cells were lysed with RIPA buffer and subjected to 8% SDS-PAGE electrophoresis. eNOS protein expression was detect by Western blot. After development with super ECL luminescence substrate, the band was analyzed with a Optical density scanner. The results were analyzed by normalizing to β-actin. 3) 5×10^5 of the PAE cells and PAE-EGFR cells were seeded into 35 mm Petri dishes plate in quadruplicate. After 12 hours, PAE and PAE-EGFR cells was treated with 12.5 μM icariside II and sildenafil for 24 hr, respectively, in the presence or absence with 100 μg/ml of EGF. Then the treated PAE and PAE-EGFR cells were lysed with RIPA buffer and subjected to 8% SDS-PAGE electrophoresis. eNOS protein expression was detect by Western blot. After development with super ECL substrate, the band was analyzed with an Optical density scanner. The resulted results were analyzed by normalizing to β-actin.
# PAE-EGFR cells = test: eNOS protein expression by Western blot in PAE-EGFR cells; type: cell-based, porcine; conditions: 12.5 μM, 24 hr; for eNOS protein expression (normalized to β-actin): PAE-EGFR cells; for eNOS expression levels: PAE-EGFR stable strains
# Description: as §1, with “1) The EGFR gene was subcloned into pGFP plasmid to construct pGFP-EGFR expression vector. With Liposome transfection reagent (Qigen), pGFP-EGFR was transfected into PAE cells. After the selection with 1800 μg/ml of G418, a single cell clone was selected. Western blot confirms the stable expression of EGFR in the PAE-EGFR cells. 2)” for “2)”
# PDE5 = PDE5 (Homo sapiens, UniProt O76074); conditions: tested in vitro; previous study; cited from earlier work
# [2] = system: volunteers with erectile dysfunction; conditions: 500 mg/time, single oral administration before sexual activity; cited from earlier work
Compound,"MPG nerve axon growth compared to control group ([1]; 10 nM, 100 nM, 1000 nM)",MPG nerve axon growth (length of the longest nerve axon) ([1]; 10 nM),MPG nerve axon growth (length of the longest nerve axon) ([1]; 100 nM),MPG nerve axon growth (length of the longest nerve axon) ([1]; 1000 nM),eNOS protein expression (normalized to β-actin) (PAE cells),eNOS expression levels (PAE cells),eNOS protein expression (normalized to β-actin) (PAE-EGFR cells),eNOS expression levels (PAE-EGFR cells),PDE5 inhibiting potency (PDE5),erectile function after single oral administration [2]
"CCCc1nn(C)c2c(=O)[nH]c(-c3cc(S(=O)(=O)N4CCN(C)CC4)ccc3OCC)nc12 [Sildenafil, sildenafil, reference compound]",did not significantly affect,215 ± 2.6 μm,238 ± 3.5 μm,219 ± 3.2 μm,1.12 ± 0.09,1.38,1.38 ± 0.013,1.12,,
icariside II,significantly increased,295 ± 5.3 μm*,325 ± 4.1 μm*,406 ± 4.3 μm*,1.08 ± 0.09,2.08,2.08 ± 0.02,1.16,significantly lower than sildenafil,"some improvement on erectile function, but the effect is not significant"
